Assay results published in patent publication US20240140947A1, “COMPOUND FOR THE TREATMENT OF CANCER” (priority 2022, published 2024).
Read-outs that look alike come from different tables or passages of the source.

Tests used:
MCF7 PalboR = experiment: Cell proliferation assay (CYQUANT, 7 days), MCF7 PalboR; type: cell-based; conditions: Homo sapiens, read-out: IC50 ± SEM, proliferation inhibition
Description: (§1) Cellular CDK activity of Compound 1 and PF-06873600 were assessed in human CCNE1-amplified ovarian cancer cell line model OVCAR3 and human ER+ breast cancer cell line model MCF7 cells. […] OVCAR3 cells were treated overnight with 1 mM hydroxyurea to enrich for G1/S phase cells prior to treatment with inhibitors. Functional effects were measured in a 7-day anti-proliferation assay in one human ovarian cancer (OVCAR3), two human ER+ breast cancer (MCF7 and T47D) and three human non-small cell lung cancer (NCIH2087, NCIH358 and A549) cell line models.
(§2) OVCAR3, MCF7, T47D, HCC1428, NCIH2087, NCIH358 or A549cells were seeded 1-3000 cells/well in 96-well plates in growth media containing 10% FBS and cultured overnight at 37° C. 5% CO2. […] CYQUANT Direct Cell Proliferation Assay (Molecular Probes, Eugene, OR) was then performed following manufacturer recommendations to determine the relative viable cell numbers on the Perkin Elmer Envision 2104 Multi Label Reader at 508 nm excitation and 527 nm emission wavelengths. IC50 values were calculated by concentration-response curve fitting utilizing a four-parameter analytical method using GraphPad Prism software.
(§3) The effect of Compound 1 on cell proliferation was assessed in multiple ER+ breast cancer cell lines, including parental and palbociclib resistant cell lines.

T47D parental = experiment: Cell proliferation assay (CYQUANT, 7 days), T47D parental; type: cell-based; conditions: Homo sapiens, 168 h, read-out: IC50 ± SEM, proliferation inhibition
Description: as §1
as §2, with “CO2. The following day, compounds were serially diluted from a 10 mM top dose for an 11-point 3-fold dilution curve in DMSO.” for “CO2.”

HCC1428 PalboR = experiment: Cell proliferation assay (CYQUANT, 7 days), HCC1428 PalboR; type: cell-based; conditions: Homo sapiens, read-out: IC50 ± SEM, proliferation inhibition
Description: OVCAR3, MCF7, T47D, HCC1428, NCIH2087, NCIH358 or A549cells were seeded 1-3000 cells/well in 96-well plates in growth media containing 10% FBS and cultured overnight at 37° C. 5% CO2. The following day, compounds were serially diluted from a 10 mM top dose for an 11-point 3-fold dilution curve in DMSO. Compound 1 and PF-06873600 were intermediately diluted 1:200 into growth media prior to diluting 1:5 on cells for final concentration 10 μM to 0.1 nM in 0.1% DMSO on cells. Cells were incubated at 37° C. 5% CO2 for 7 days. CYQUANT Direct Cell Proliferation Assay (Molecular Probes, Eugene, OR) was then performed following manufacturer recommendations to determine the relative viable cell numbers on the Perkin Elmer Envision 2104 Multi Label Reader at 508 nm excitation and 527 nm emission wavelengths. IC50 values were calculated by concentration-response curve fitting utilizing a four-parameter analytical method using GraphPad Prism software.
as §3

NCIH2087 = experiment: Cell proliferation assay (CYQUANT, 7 days), NCIH2087; type: cell-based; conditions: Homo sapiens, NCI-H2087, 168 h, read-out: IC50 ± SEM, proliferation inhibition
Description: as §1
as §2, with “CO2. The following day, compounds were serially diluted from a 10 mM top dose for an 11-point 3-fold dilution curve in DMSO.” for “CO2.”

[1] = Human hepatocyte stability; type: in vitro ADME; conditions: hepatocytes, 0.5 million cells/mL, 37° C., 4 hours, read-out: CLint HHEP: CLint in human hepatocytes (in vitro)
Description: At various time points, samples were taken and analyzed by LC-MS/MS. CLint HHEP was calculated based on loss of parent compound over time using equations discussed in “A novel relay method for determining low-clearance values,” Drug Metab Dispos., 2012; 40(9):1860-5.

[2] = Human plasma protein binding (equilibrium dialysis); type: in vitro ADME; conditions: 6-hour incubation, pH 7.4, read-out: fup: human plasma unbound fraction
Description: Frozen plasma in K3EDTA was purchased from BiolVT and Dulbecco's phosphate buffered saline (DPBS) and HCl were purchased from Sigma. Human plasma unbound fraction (fu r) was determined by equilibrium dialysis using an HTD 96 device (HTDialysis, LLC, Gales Ferry, CT) assembled with 12-14k MWCO membranes. Plasma was thawed and adjusted to pH 7.4 with 1 N HCl prior to use. Dialysis chambers were loaded with 150 μL plasma and 150 μL PBS in the donor and receiver chambers, respectively. The dialysis plate was sealed with a gas-permeable membrane and stored in a 37° C. water-jacked incubator maintained at 75% relative humidity and 5% CO2, on a 100 rpm plate shaker. After a 6-hour incubation, samples were matrix-matched and quench by protein precipitation, followed by LC-MS analysis. A set of satellite samples was included to measure stability after a 6-hour incubation. Incubations were conducted with 4 to 12 replicates. The fup was calculated by dividing the analyte-to-internal standard peak area ratio or analyte concentration in the buffer sample by the signal in the donor sample, corrected for any dilution factors.

[3] = Dog i.v. pharmacokinetic study; type: in vivo; conditions: for Vd: dog, plasma, iv, 0.1 mg/kg, male Beagle dogs, read-out: Dog Vdss
Description: Dog PK studies were done at Pfizer (Groton, CT); animal care and in vivo procedures were conducted according to guidelines from the Pfizer Institutional Animal Care and Use Committee. Male Beagle dogs were purchased from Marshall BioResources (North Rose, New York) and were typically 1-5 years of age at the time of dosing. Compounds were administered i.v. via the cephalic vein (n=2), dosed as a solution using standard compatible excipients at 0.5 mL/kg for a resulting dose of 0.1 mg/kg. Serial blood samples were collected via the jugular vein at predetermined timepoints after dosing. Animals were monitored for pain or distress throughout the study, with at least daily monitoring during normal husbandry prior to study start. Blood samples were collected into tubes containing K3EDTA and stored on ice until centrifugation to obtain plasma, which was stored frozen at −20° C. or lower. Urine samples were collected at room temperature and stored frozen at −20° C. or lower at the end of each time interval. Plasma samples from the animal PK studies were processed using protein precipitation with acetonitrile: methanol (1:1) containing internal standard verapamil followed by quantitation by LC-MS/MS against a standard curve prepared in blank plasma. Pharmacokinetic parameters were calculated using noncompartmental analysis (Watson v.7.5, Thermo Scientific).

[4] = Mouse early toxicology screening (ETS) study; type: in vivo; conditions: for bone marrow histology: day 14, Compound 1 75 mg/kg BID, PF-06873600 150 mg/kg BID, compared with vehicle
Description: Three groups of ten-week-old male CD1 mice were separately evaluated in early toxicology screening studies. Group 1 (n=5/group) were administered an oral dose of 25, 50 and 75 mg/kg BID of Compound 1 for 14 days. Group 2 (n=5/group) were administered an oral dose of 25, 75 and 150 mg/kg BID of PF-06873600 for 14 days. A vehicle control Group 3 (n=5/group) were also included where vehicle was administered BID for 14 days. Study evaluations included clinical observations, body weights, clinical pathology, toxicokinetics, gross pathology and microscopic pathology.
At the end of the ETS study on day 14, mice were sacrificed and images of the mouse bone marrow from each study group (n=5) were obtained.
The systemic exposure of Compound 1 and PF-06873600 were also compared. Exposures from mouse toxicity studies were determined using plasma samples collected as timepoints on day 8 or 14 of the study and were processed using protein precipitation with solvent mixture acetonitrile:methanol (1:1) containing internal standard verapamil followed by quantitation by LC-MS/MS against a standard curve prepared in blank plasma. The free plasma concentrations were calculated using the mouse plasma protein binding for compound 1 (fup=0.182) and PF-06873600 (fup=0.277). (FIG. 3)

Compound	IC50 (MCF7 PalboR; MCF7, 168 h) [nM]	IC50 (T47D parental; T47D) [nM]	IC50 (HCC1428 PalboR; HCC1428, 168 h) [nM]	IC50 (NCIH2087) [nM]	hepatocyte CLint at 1 μM [1] [µL/min/1e6 cells]	fraction unbound at 6 h [2]	Dog Vdss unbound: (Dog Vdss/dog plasma fu) [3] [L/kg]	Vd [3] [L/kg]	bone marrow histology [4]	IC50 (MCF7 PalboR; 168 h, MCF7 PalboR, 7 days, mean) [nM]	IC50 (T47D parental; T47D parental, 7 days, mean) [nM]	IC50 (HCC1428 PalboR; 168 h, HCC1428 PalboR, 7 days, mean) [nM]	IC50 (NCIH2087; NCIH2087, 7 days, mean) [nM]	neutropenia ([4]; male CD1 mice, oral 25, 50 and 75 mg/kg BID for 14 days)
C[C@@]1(O)CCC[C@H]1n1c(=O)c(C(F)F)cc2cnc(NC3CCN(S(C)(=O)=O)CC3)nc21 [Compound 2, reference compound]	111 ± 56.1	70.6 ± 14.1	269 ± 63.9	79.8	~2	0.288	2.8	1.1	vacuoles and large spaces between cells in the bone marrow image indicating cell death/apoptosis					
C[C@@]1(O)CCC[C@H]1n1c(=O)c(CC(F)F)cc2cnc(NC3CCN(S(N)(=O)=O)CC3)nc21 [Compound 1, 4-({6-(2,2-difluoroethyl)-8-[(1R,2R)-2-hydroxy-2-methylcyclopentyl]-7-oxo-7,8-dihydropyrido[2,3-d]pyrimidin-2-yl}amino)piperidine-1-sulfonamide]					~2	0.174	6.7	1.5	lack of impact on the mouse bone marrow	37.3 ± 2.8	17.6 ± 2.5	61.4 ± 4.9	40 ± 6.8	no neutropenia was observed
